From the supplement of paper PMC10307832

Tests used:
Experiment in all cases: relative viability (nuclei count vs DMSO), 5 days (fraction); higher = more cells survive
Tipifarnib + Linsitinib = compound: Cn1cncc1[C@@](N)(c1ccc(Cl)cc1)c1ccc2c(c1)c(-c1cccc(Cl)c1)cc(=O)n2C [Tipifarnib] + C[C@]1(O)C[C@@H](c2nc(-c3ccc4ccc(-c5ccccc5)nc4c3)c3c(N)nccn32)C1 [Linsitinib] (partner 1 µM)
In short: (§1)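 The day after seeding in 1536-well plates, lung cancer cell lines were treated by pin tool with a single drug, or with a fixed anchor-drug dose together with five library-drug doses (not always all listed) in √10 steps. After 5 days, a combined fix-and-stain solution (final 0.05% Triton X-100, 1% formaldehyde, 1 ug/ml Hoechst) was added. Nuclei counted on 4× images gave relative viability as treated counts over vehicle counts, reported as the median of duplicate plates.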

Tipifarnib + Navitoclax = compound: Cn1cncc1[C@@](N)(c1ccc(Cl)cc1)c1ccc2c(c1)c(-c1cccc(Cl)c1)cc(=O)n2C [Tipifarnib] + CC1(C)CCC(c2ccc(Cl)cc2)=C(CN2CCN(c3ccc(C(=O)NS(=O)(=O)c4ccc(N[C@H](CCN5CCOCC5)CSc5ccccc5)c(S(=O)(=O)C(F)(F)F)c4)cc3)CC2)C1 [Navitoclax] (partner 0.5 µM)
In short: as §1

Tipifarnib + Vorinostat = compound: Cn1cncc1[C@@](N)(c1ccc(Cl)cc1)c1ccc2c(c1)c(-c1cccc(Cl)c1)cc(=O)n2C [Tipifarnib] + O=C(CCCCCCC(=O)Nc1ccccc1)NO [Vorinostat] (partner 1 µM)
In short: as §1

Tipifarnib + Pemetrexed = compound: Cn1cncc1[C@@](N)(c1ccc(Cl)cc1)c1ccc2c(c1)c(-c1cccc(Cl)c1)cc(=O)n2C [Tipifarnib] + Nc1nc2[nH]cc(CCc3ccc(C(=O)N[C@@H](CCC(=O)O)C(=O)O)cc3)c2c(=O)[nH]1 [Pemetrexed] (partner 0.2 µM)
In short: as §1

Cell Line	relative viability (Tipifarnib + Linsitinib; first compound 0.01 µM)	relative viability (Tipifarnib + Linsitinib; first compound 0.03162 µM)	relative viability (Tipifarnib + Linsitinib; first compound 0.1 µM)	relative viability (Tipifarnib + Linsitinib; first compound 0.3162 µM)	relative viability (Tipifarnib + Linsitinib; first compound 1 µM)	relative viability (Tipifarnib + Navitoclax; first compound 0.01 µM)	relative viability (Tipifarnib + Navitoclax; first compound 0.03162 µM)	relative viability (Tipifarnib + Navitoclax; first compound 0.1 µM)	relative viability (Tipifarnib + Navitoclax; first compound 0.3162 µM)	relative viability (Tipifarnib + Navitoclax; first compound 1 µM)	relative viability (Tipifarnib + Vorinostat; first compound 0.01 µM)	relative viability (Tipifarnib + Vorinostat; first compound 0.03162 µM)	relative viability (Tipifarnib + Vorinostat; first compound 0.1 µM)	relative viability (Tipifarnib + Vorinostat; first compound 0.3162 µM)	relative viability (Tipifarnib + Vorinostat; first compound 1 µM)	relative viability (Tipifarnib + Pemetrexed; first compound 0.01 µM)	relative viability (Tipifarnib + Pemetrexed; first compound 0.03162 µM)	relative viability (Tipifarnib + Pemetrexed; first compound 0.1 µM)	relative viability (Tipifarnib + Pemetrexed; first compound 0.3162 µM)	relative viability (Tipifarnib + Pemetrexed; first compound 1 µM)
LOU-NH91	0.937	0.819	0.838	0.736	0.691	0.682	0.633	0.663	0.483	0.398	0.897	0.53	0.749	0.747	0.458	0.347	0.409	0.412	0.408	0.459
LU99A	0.563	0.477	0.299	0.257	0.272	0.668	0.618	0.488	0.455	0.356	0.389	0.385	0.327	0.271	0.277	0.201	0.202	0.2	0.217	0.196
LXF-289	0.989	0.951	0.865	0.876	0.897	0.936	0.959	0.87	0.829	0.856	0.775	0.755	0.665	0.59	0.332	0.849	0.884	0.835	0.759	0.526
NCI-H23	0.747	0.573	0.44	0.331	0.39	1.11	0.883	0.657	0.562	0.406	0.543	0.31	0.299	0.205	0.167	0.714	0.602	0.588	0.466	0.242
NCI-H322M	0.934	0.921	0.96	0.672	0.853	1.18	1.2	1.31	0.971	1.19	0.869	0.991	0.813	0.863	0.725	0.605	0.681	0.68	0.641	0.625
NCI-H441	0.67	0.455	0.413	0.402	0.33	0.498	0.255	0.481	0.294	0.253	1.08	0.724	0.68	0.431	0.44	0.269	0.286	0.294	0.307	0.254
NCI-H460	0.841	0.639	0.173	0.146	0.0526	1.13	0.905	0.531	0.252	0.0922	0.734	0.329	0.283	0.116	0.116	0.0634	0.0696	0.0701	0.06	0.0551
NCI-H520	1.11	0.849	0.987	0.673	0.737	1.24	1.03	0.917	0.965	0.72	0.781	0.695	0.599	0.515	0.47	0.726	0.652	0.574	0.511	0.528
NCI-H596	1	1.03	0.854	0.934	0.844	1.05	0.78	0.72	0.739	0.64	1.11	0.462	0.467	0.456	0.434	0.488	0.492	0.482	0.528	0.514
NCI-H647	1.35	1.04	0.649	0.557	0.609	0.983	0.813	0.822	0.397	0.37	0.321	0.326	0.352	0.157	0.13	0.209	0.213	0.157	0.139	0.116
NCI-H838	0.955	0.826	0.684	0.628	0.6	1.09	0.978	0.932	0.854	0.862	0.665	0.646	0.606	0.568	0.588	0.259	0.264	0.293	0.269	0.269
NCI-H1355	0.861	0.896	0.649	0.541	0.69	0.906	0.791	0.767	0.614	0.628	0.625	0.544	0.409	0.466	0.301	1.04	0.966	0.81	0.776	0.745
NCI-H1395	1.43	1.14	0.888	0.869	0.783	1.17	0.936	0.978	0.835	0.799	0.673	0.53	0.603	0.523	0.393	0.826	0.76	0.746	0.651	0.508
NCI-H1437	1.15	0.993	1.04	0.816	0.698	1.14	1.07	1.06	1.03	0.927	0.837	0.796	0.747	0.646	0.601	0.32	0.344	0.322	0.285	0.297
NCI-H1651	1.18	1.06	0.964	0.892	0.961	1.15	1.21	0.994	0.912	0.895	0.545	0.54	0.537	0.507	0.335	0.592	0.636	0.676	0.635	0.522
NCI-H1666	0.719	0.704	0.623	0.549	0.573	0.853	0.758	0.727	0.644	0.637	1.05	0.874	1.02	0.883	0.878	0.908	0.889	0.766	0.844	0.842

Cell Line	relative viability (Tipifarnib + Linsitinib; first compound 0.01 µM)	relative viability (Tipifarnib + Linsitinib; first compound 0.03162 µM)	relative viability (Tipifarnib + Linsitinib; first compound 0.1 µM)	relative viability (Tipifarnib + Linsitinib; first compound 0.3162 µM)	relative viability (Tipifarnib + Linsitinib; first compound 1 µM)	relative viability (Tipifarnib + Navitoclax; first compound 0.01 µM)	relative viability (Tipifarnib + Navitoclax; first compound 0.03162 µM)	relative viability (Tipifarnib + Navitoclax; first compound 0.1 µM)	relative viability (Tipifarnib + Navitoclax; first compound 0.3162 µM)	relative viability (Tipifarnib + Navitoclax; first compound 1 µM)	relative viability (Tipifarnib + Vorinostat; first compound 0.01 µM)	relative viability (Tipifarnib + Vorinostat; first compound 0.03162 µM)	relative viability (Tipifarnib + Vorinostat; first compound 0.1 µM)	relative viability (Tipifarnib + Vorinostat; first compound 0.3162 µM)	relative viability (Tipifarnib + Vorinostat; first compound 1 µM)	relative viability (Tipifarnib + Pemetrexed; first compound 0.01 µM)	relative viability (Tipifarnib + Pemetrexed; first compound 0.03162 µM)	relative viability (Tipifarnib + Pemetrexed; first compound 0.1 µM)	relative viability (Tipifarnib + Pemetrexed; first compound 0.3162 µM)	relative viability (Tipifarnib + Pemetrexed; first compound 1 µM)
NCI-H1734	0.875	0.85	0.709	0.694	0.48	0.882	0.718	0.635	0.464	0.431	0.791	0.553	0.534	0.368	0.364	0.38	0.442	0.428	0.419	0.394
NCI-H1755	0.995	0.957	0.928	0.913	0.897	1.02	0.971	0.968	0.776	0.851	0.75	0.764	0.781	0.739	0.596	0.41	0.524	0.446	0.474	0.425
NCI-H1793	0.983	0.577	0.737	0.751	0.576	0.409	0.481	0.441	0.373	0.353	0.635	0.643	0.737	0.404	0.292	0.89	0.748	0.703	0.522	0.389
NCI-H1915	0.902	0.695	0.631	0.542	0.583	0.791	0.65	0.768	0.455	0.469	0.544	0.43	0.373	0.305	0.336	0.549	0.449	0.449	0.353	0.298
NCI-H1944	1.3	1	1.09	0.644	0.737	1.18	0.826	0.913	0.519	0.524	0.509	0.382	0.309	0.289	0.285	0.531	0.581	0.48	0.438	0.409
NCI-H1975	1.07	1.16	0.876	0.614	0.714	1.29	1.04	1.08	0.541	0.734	0.639	0.682	0.588	0.485	0.491	0.258	0.285	0.3	0.241	0.251
NCI-H1993	0.772	0.746	0.73	0.732	0.789	0.852	0.866	0.765	0.645	0.671	0.819	0.446	0.489	0.468	0.497	0.664	0.55	0.647	0.427	0.605
NCI-H2009	1.19	1.09	0.903	0.702	0.667	1.13	1.06	0.785	0.63	0.744	0.604	0.411	0.405	0.577	0.504	0.979	0.999	0.7	0.658	0.694
NCI-H2023	0.598	0.503	0.37	0.329	0.384	1.01	0.773	0.68	0.457	0.47	0.598	0.366	0.289	0.186	0.137	0.242	0.289	0.19	0.212	0.198
NCI-H2085	0.923	0.651	0.514	0.404	0.479	0.862	0.788	0.546	0.611	0.514	0.767	0.575	0.62	0.53	0.445	0.874	0.677	0.693	0.525	0.539
NCI-H2087	0.797	0.583	0.514	0.5	0.447	0.918	0.559	0.407	0.411	0.467	0.668	0.363	0.292	0.248	0.222	0.58	0.569	0.383	0.326	0.373
NCI-H2126	0.758	0.617	0.692	0.692	0.682	0.888	0.822	0.845	0.74	0.709	0.797	0.752	0.763	0.768	0.409	0.666	0.691	0.676	0.642	0.503
NCI-H2228	0.771	0.416	0.611	0.382	0.494	0.878	0.71	1.06	0.735	0.527	0.398	0.453	0.493	0.314	0.3	0.364	0.34	0.361	0.296	0.333
NCI-H2347	0.973	0.739	0.649	0.693	0.735	0.782	0.576	0.643	0.627	0.598	0.547	0.515	0.497	0.431	0.476	0.455	0.446	0.446	0.406	0.398
NCI-H2405	0.952	0.885	0.845	0.821	0.79	1.01	0.86	0.961	0.8	0.537	1.12	0.967	0.817	0.881	0.547	1.03	1.07	0.964	0.967	0.866
NCI-H3122	1.02	0.835	0.784	0.663	0.726	1.02	0.95	0.857	0.675	0.782	1.12	0.962	0.709	0.538	0.219	0.205	0.204	0.199	0.188	0.188
